Assay results taken from patent US20030055065A1, “Tricyclic amide and urea compounds useful for inhibition of G-protein function and for treatment of proliferative diseases” (priority 1993, published 2003).
“And” between values parts separate entries of the source, which are not always exact repeats. Equal values may be shown once. Read-outs that look alike come from different tables or passages of the source.

Assays:
[1] = tested on: T24-BAG4 human bladder carcinoma cells expressing an activated H-ras gene; assay: Cell Mat Assay: tumor cell colony inhibition (tIC50); assay type: cell-based; conditions: inhibition of tumor cell growth
Method: (§1) Compound-induced colony inhibition was assayed by addition of serial dilutions of compound directly to the growth medium 24 h after tumor cell planting, and incubating cells for an additional 14 d to allow colony formation. Assays were terminated by rinsing monolayers twice with phosphate-buffered saline (PBS), fixing the monolayers with a 1% glutaraldehyde solution in PBS, then visualizing tumor cells by staining with X-Gal (Price, J., et al., Lineage analysis in the vertebrate nervous system by retrovirus-mediated gene transfer, Proc. Natl. Acad. Sci.84, 156-160(1987)). […] Both IC50 values were obtained by determining the density of tumor cells and mat cells by visual inspection and enumeration of cells per colony and the number of colonies under the microscope.

[2] = tested on: Normal human HEPM fibroblasts; assay: Cell Mat Assay: density of mat cells (mIC50); assay type: cell-based
Method: as §1

[3] = target: T1, farnesyl protein transferase (FPT), partially purified from rat brain (Rattus norvegicus, UniProt Q02293+Q04631); assay: Inhibition of farnesyl protein transferase (transfer of [3H]farnesyl to Ras-CVLS); assay type: biochemical
T1 construct: were partially purified from rat brain by ammonium sulfate fractionation followed by Q-Sepharose
T1 sequence (Q02293 whole entry, one chain of several): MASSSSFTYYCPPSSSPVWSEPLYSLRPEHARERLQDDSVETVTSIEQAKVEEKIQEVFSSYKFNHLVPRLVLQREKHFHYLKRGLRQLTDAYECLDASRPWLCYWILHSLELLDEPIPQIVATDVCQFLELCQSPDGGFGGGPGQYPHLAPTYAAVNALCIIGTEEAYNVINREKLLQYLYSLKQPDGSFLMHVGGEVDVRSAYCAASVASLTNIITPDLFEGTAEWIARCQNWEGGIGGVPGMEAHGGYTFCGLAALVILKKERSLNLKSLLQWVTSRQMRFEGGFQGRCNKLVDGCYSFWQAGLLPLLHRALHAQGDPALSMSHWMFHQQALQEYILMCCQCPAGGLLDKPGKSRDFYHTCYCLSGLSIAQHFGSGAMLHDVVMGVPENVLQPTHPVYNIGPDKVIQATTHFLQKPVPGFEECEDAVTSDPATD
Summary of the method: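 Transfer of [3H]farnesyl onto E. coli-expressed, His6-tagged Ras-CVLS was measured after 30 min at room temperature. Radiolabelled Ras was TCA-precipitated on ice and filter-harvested, and inhibition was expressed as percent of DMSO control.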

[4] = FPT IC50, Ras-CVLS farnesylation, partially purified rat brain FPT
[5] = Ras-CVLS farnesylation, partially purified rat brain FPT, read-out: FPT IC50
[6] = enzyme inhibition, read-out: FPT IC50

IC50 ([1]; Homo sapiens) [µM] | IC50 [3, 5] | SMILES | IC50 ([2]; Homo sapiens, Fibroblast) [µM] | other results
 |  | O=C(Cc1ccncc1)N1CCC(=C2c3ccncc3CCc3cc(Cl)ccc32)CC1 [160 (5.39)] |  | IC50 [1]: 37 µM; IC50 [2]: 50 µM
 |  | O=C(Cc1ccncc1)N1CCC(=C2c3ccc(Cl)cc3CCc3cc(Cl)cnc32)CC1 [180 (5.47)] |  | IC50 [1]: 18 µM; IC50 [2]: > 50 µM
5 |  | O=C(Nc1ccncc1)N1CCN(C2c3ccc(Cl)cc3CCc3cccnc32)CC1 (centres unmarked) [183 (6.5)] | 18 | 
 |  | O=C(C(=O)N1CCC(=C2c3ccc(Cl)cc3CCc3cccnc32)CC1)c1c[nH]c2ccccc12 [219 (5.92)] |  | IC50 [1]: 25 µM; IC50 [2]: > 50 µM
 |  | O=C(Cc1ccccc1[N+](=O)[O-])C(=O)N1CCC(=C2c3ccc(Cl)cc3CCc3cccnc32)CC1 [220 (5.93)] |  | IC50 [1]: 25 µM; IC50 [2]: > 50 µM
 |  | O=C(Cc1csc2ccccc12)N1CCC(=C2c3ccc(Cl)cc3CCc3cccnc32)CC1 [221 (5.94)] |  | IC50 [1]: 6.25 µM; IC50 [2]: > 50 µM
12.5 | 3.5 µM | CC(=O)N1CCC(CC(=O)N2CCN([C@@H]3c4ccc(Cl)cc4CCc4cccnc43)CC2)CC1 [225 (5.98)] | 50 | 
25 | 4.1 µM | CC(=O)N1CCC(C(=O)N2CCN([C@@H]3c4ccc(Cl)cc4CCc4cccnc43)CC2)CC1 [226 (5.100)] | > 50 | 
25 | 4.3 µM | O=C(c1ccc([N+](=O)[O-])cc1)N1CCC(=C2c3ccc(Cl)cc3CCc3cccnc32)CC1 [Example 10] | > 50 | 
50 | 4.3 µM | O=C(CSc1ncccn1)N1CCC(=C2c3ccc(Cl)cc3CCc3cccnc32)CC1 [Example 12] | > 50 | 
> 50 | 2.78 µM | CC(S)C(=O)NCC(=O)N1CCN(C2c3ccc(Cl)cc3CCc3cccnc32)CC1 (centres unmarked) [Example 81] | > 50 | 
50 | 3.4 µM | NS(=O)(=O)c1ccc(C(=O)N2CCC(=C3c4ccc(Cl)cc4CCc4cccnc43)CC2)cc1 [Example 90] | > 50 | 
50 | 3.9 µM | CS(=O)(=O)Nc1ccc(C(=O)N2CCC(=C3c4ccc(Cl)cc4CCc4cccnc43)CC2)cc1 [Example 91] | 80 | 
40 | 3.9 µM | CS(=O)(=O)c1ccc(C(=O)N2CCC(=C3c4ccc(Cl)cc4CCc4cccnc43)CC2)cc1 [Example 93] | > 50 | 
40 | 4 µM | C[S+]([O-])c1ccc(C(=O)N2CCC(=C3c4ccc(Cl)cc4CCc4cccnc43)CC2)cc1 (centres unmarked) [Example 94] | 80 | 
> 50 | 4.2 µM | O=C(C1CCS(=O)(=O)CC1)N1CCC(=C2c3ccc(Cl)cc3CCc3cccnc32)CC1 [Example 95] | > 50 | 
50 | 4.3 µM | O=C(/C=C/c1cccnc1)N1CCC(=C2c3ccc(Cl)cc3CCc3cccnc32)CC1 [Example 96] | > 50 | 
> 50 | 4.4 µM | O=C(C1CCC(O)CC1)N1CCC(=C2c3ccc(Cl)cc3CCc3cccnc32)CC1 (centres unmarked) [Example 97] | > 50 | 
50 | 4.4 µM | O=C(c1ccc(Cl)nc1)N1CCC(=C2c3ccc(Cl)cc3CCc3cccnc32)CC1 [Example 98] | > 50 | 
50 | 1.4 µM | S=C(c1ccccc1)N1CCC(=C2c3ccc(Cl)cc3CCc3cccnc32)CC1 [Example 121] | > 50 | 
50 | 2.9 µM | O=C(Cc1ccccc1[N+](=O)[O-])N1CCC(=C2c3ccc(Cl)cc3CCc3cccnc32)CC1 [Example 126] | > 50 | 
25 | 3 µM | O=C(Cc1ccc(O)cc1)N1CCC(=C2c3ccc(Cl)cc3CCc3cccnc32)CC1 [Example 128] | > 50 | 
37 | 1.09 µM | O=C(Nc1ccccc1)N1CCN(C2c3ccc(Cl)cc3CCc3cccnc32)CC1 (centres unmarked) [Example 182] | > 50 | 

IC50 ([1]; Homo sapiens) [µM] | IC50 [3, 5] | SMILES | IC50 ([2]; Homo sapiens, Fibroblast) [µM] | other results
> 50 | 3.3 µM | CC(C)(C(=O)N1CCN(C2c3ccc(Cl)cc3CCc3cccnc32)CC1)c1ccccc1 (centres unmarked) [Example 190] | > 50 | 
< 3.1 | 4.9 µM | CC(C(=O)N1CCN(C2c3ccc(Cl)cc3CCc3cccnc32)CC1)c1cccnc1 (centres unmarked) [Example 191] | 50 | 
> 50 | 4.8 µM | CC(C)(C)OC(=O)NCC(=O)N1CCN(C2c3ccc(Cl)cc3CCc3cccnc32)CC1 (centres unmarked) [Example 208] | > 50 | 
25 | 7.92 µM | O=C(Cc1ccccc1)NCC(=O)N1CCN(C2c3ccc(Cl)cc3CCc3cccnc32)CC1 (centres unmarked) [Example 209] | > 50 | 
37 | 8.17 µM | O=C(Cc1cccc(O)c1)NCC(=O)N1CCN(C2c3ccc(Cl)cc3CCc3cccnc32)CC1 (centres unmarked) [Example 211] | > 50 | 
25 | 7.92 µM | O=C(Cc1ccccc1O)NCC(=O)N1CCN(C2c3ccc(Cl)cc3CCc3cccnc32)CC1 (centres unmarked) [Example 212] | 37 | 
37 | 6.75 µM | O=C(CCc1ccccc1)NCC(=O)N1CCN(C2c3ccc(Cl)cc3CCc3cccnc32)CC1 (centres unmarked) [Example 217] | 50 | 
37 | 9.92 µM | O=C(CCc1ccc(O)cc1)NCC(=O)N1CCN(C2c3ccc(Cl)cc3CCc3cccnc32)CC1 (centres unmarked) [Example 218] | 50 | 
37 | 4.38 µM | O=C(Cc1cccnc1)N1CCC(=C2c3ccc(Cl)cc3CCc3ccc[n+]([O-])c32)CC1 [Example 229] | > 50 | 
> 50 |  | O=C(Cc1ccc[n+]([O-])c1)N1CCC(C2c3ccc(Cl)cc3CCc3ccc[n+]([O-])c32)CC1 (centres unmarked) [Example 237] | > 50 | inhibition at 4 µM ([3]; at 4 μM): 18%
> 50 | 2.71 µM | CN(C)c1ccc(CC(=O)N2CCC(=C3c4ccc(Cl)cc4CCc4cccnc43)CC2)cc1 [Example 297] | > 50 | 
 | 0.04 µM and 0.075 µM | Cc1cnc2c(c1)CCc1cc(Cl)ccc1C2=C1CCN(C(=O)Cc2ccncc2)CC1 [Example 301] | > 50 | 
 |  | CC(C)(C)c1cnc2c(c1)CCc1cc(Cl)ccc1C2=C1CCN(C(=O)Cc2ccncc2)CC1 [Example 305] |  | FPT inhibition ([3]; at 4 μM): 40% @4 μM; IC50 [1]: 25 µM; IC50 [2]: > 50 µM
6.25 |  | CN1CCCC(CC(=O)N2CCN(C3c4ccc(Cl)cc4CCc4cc(Br)cnc43)CC2)C1 (centres unmarked) [Example 425-U] | 10 | 
 |  | CNC(=O)N1CCCC(CC(=O)N2CCN(C3c4ccc(Cl)cc4CCc4cccnc43)CC2)C1 (centres unmarked) [Example 431-G] |  | IC50 [3, 6]: 7 µM
 |  | NC(=O)N1CCC(CC(=O)N2CCN(C3c4ccc(Cl)cc4CCc4cccnc43)CC2)CC1 (centres unmarked) [Example 431] |  | IC50 [3, 6]: 0.82 µM
 |  | CN1CCCC(NC(=O)N2CCN(C3c4ccc(Cl)cc4CCc4cccnc43)CC2)C1 (centres unmarked) [Example 432] |  | IC50 [3, 6]: 0.66 µM
 | 1.1 µM | N[C@@H](CO)C(=O)N1CCC(CC(=O)N2CCN(C3c4ccc(Cl)cc4CCc4cccnc43)CC2)CC1 (some centres unmarked) [Example 433-A] |  | 
 | 1.89 µM | CSCC[C@H](N)C(=O)N1CCC(CC(=O)N2CCN(C3c4ccc(Cl)cc4CCc4cccnc43)CC2)CC1 (some centres unmarked) [Example 433-B] |  | 
 | 2.5 µM | NCC(=O)N1CCC(CC(=O)N2CCN(C3c4ccc(Cl)cc4CCc4cccnc43)CC2)CC1 (centres unmarked) [Example 433-C] |  | 
 | 2.5 µM | C[C@H](N)C(=O)N1CCC(CC(=O)N2CCN(C3c4ccc(Cl)cc4CCc4cccnc43)CC2)CC1 (some centres unmarked) [Example 433] |  | 
 |  | COC(=O)c1ccc2c(c1)CCc1cccnc1C2=C1CCN(C(=O)Cc2ccncc2)CC1 [Example 434-A] |  | IC50 [3, 6]: 3.5 µM
 | 0.75 µM | NC(=O)c1ccc2c(c1)CCc1cccnc1C2=C1CCN(C(=O)Cc2ccncc2)CC1 [Example 436-D] |  | 

SMILES | IC50 ([1]; Homo sapiens) [µM] | IC50 [3, 5] | IC50 ([2]; Homo sapiens, Fibroblast) [µM] | other results
O=C(Cc1cccnc1)N1CCN(C2c3ccc(Cl)cc3CCc3ccc[n+]([O-])c32)CC1 (centres unmarked) [184 (5.60)] | 12.5 |  | > 50 | IC50 [3, 4]: 0.91 µM
O=C(Cc1cccnc1)N1CCN([C@@H]2c3ccc(Cl)cc3CCc3cccnc32)CC1 [223 (5.96)] | 25 |  | > 50 | IC50 [3, 4]: 2.1 µM
O=C(Cc1cccnc1)N1CCN([C@H]2c3ccc(Cl)cc3CCc3cccnc32)CC1 [223 (5.97)] | 8 |  | > 50 | IC50 [3, 4]: 0.19 µM and 0.72 µM and 0.61 µM
O=C(CCCc1ccccc1)N1CCC(=C2c3ccc(Cl)cc3CCc3cccnc32)CC1 [Example 11] |  | 4.3 µM |  | IC50 [1]: > 50 µM; IC50 [2]: > 50 µM
O=C(Cc1ccccc1)N1CCN(C2c3ccc(Cl)cc3CCc3cccnc32)CC1 (centres unmarked) [Example 80] | > 50 |  | > 50 | IC50 [3, 4]: 2.73 µM
CN(C)c1ccc(CC(=O)N2CCN(C3c4ccc(Cl)cc4CCc4cccnc43)CC2)cc1 (centres unmarked) [Example 189] | 37 |  | > 50 | IC50 [3, 4]: 2.44 µM
O=C(Cc1ccccn1)N1CCN(C2c3ccc(Cl)cc3CCc3cccnc32)CC1 (centres unmarked) [Example 196] | 37 |  | > 50 | IC50 [3, 4]: 0.36 µM; IC50 ([1]; listed as 196 (5.69)): 25 µM
O=C(Cc1ccc[n+]([O-])c1)N1CCN(C2c3ccc(Cl)cc3CCc3cccnc32)CC1 (centres unmarked) [Example 197] | 25 |  | > 50 | IC50 [3, 4]: 1.17 µM
